Results as given in the supplement of paper PMC10307832.

Assays:
Test in all cases: relative viability (nuclei count vs DMSO), 5 days (fraction); higher = more cells survive
HCC-827 = tested on: HCC-827
Procedure, shortened: (§1)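 Lung cancer cell lines were pin-tool dosed in 1536-well plates on the day after seeding, with either a lone drug or a fixed anchor-drug dose plus five library-drug doses (not always all listed) in √10 steps. Nuclei were counted on 4× images after 5 days. Relative viability is the ratio of treated-well to vehicle-well nuclei counts, with each value a median of duplicate plates.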

NCI-H1395 = tested on: NCI-H1395
Procedure, shortened: as §1

NCI-H1563 = tested on: NCI-H1563
Procedure, shortened: as §1

H3255 = tested on: H3255
Procedure, shortened: as §1

COR-L23 = tested on: COR-L23
Procedure, shortened: as §1

NCI-H520 = tested on: NCI-H520
Procedure, shortened: as §1

NCI-H1651 = tested on: NCI-H1651
Procedure, shortened: as §1

ChaGo-K-1 = tested on: ChaGo-K-1
Procedure, shortened: as §1

NCI-H2085 = tested on: NCI-H2085
Procedure, shortened: as §1

NCI-H2087 = tested on: NCI-H2087
Procedure, shortened: as §1

NCI-H2405 = tested on: NCI-H2405
Procedure, shortened: as §1

Cc1sc2c(c1C)C(c1ccc(Cl)cc1)=N[C@@H](CC(=O)OC(C)(C)C)c1nnc(C)n1-2 [JQ1] + Cc1nc(Nc2ncc(C(=O)Nc3c(C)cccc3Cl)s2)cc(N2CCN(CCO)CC2)n1 [Dasatinib] (partner 0.075 µM)
relative viability (HCC-827; first compound 1.265 µM): 0.438
relative viability (HCC-827; first compound 4 µM): 0.421
relative viability (NCI-H1395; first compound 0.04 µM): 0.36
relative viability (NCI-H1395; first compound 0.1265 µM): 0.364
relative viability (NCI-H1395; first compound 0.4 µM): 0.362
relative viability (NCI-H1395; first compound 1.265 µM): 0.355
relative viability (NCI-H1395; first compound 4 µM): 0.388
relative viability (NCI-H1563; first compound 0.04 µM): 0.446
relative viability (NCI-H1563; first compound 0.1265 µM): 0.405
relative viability (NCI-H1563; first compound 0.4 µM): 0.533
relative viability (NCI-H1563; first compound 1.265 µM): 0.443
relative viability (NCI-H1563; first compound 4 µM): 0.362
relative viability (H3255; first compound 0.04 µM): 0.438
relative viability (H3255; first compound 0.1265 µM): 0.319
relative viability (H3255; first compound 0.4 µM): 0.504
relative viability (H3255; first compound 1.265 µM): 0.317
relative viability (H3255; first compound 4 µM): 0.269
relative viability (COR-L23; first compound 0.04 µM): 0.507
relative viability (COR-L23; first compound 0.1265 µM): 0.351
relative viability (COR-L23; first compound 0.4 µM): 0.516
relative viability (COR-L23; first compound 1.265 µM): 0.279
relative viability (COR-L23; first compound 4 µM): 0.256
relative viability (NCI-H520; first compound 0.04 µM): 0.206
relative viability (NCI-H520; first compound 0.1265 µM): 0.196
relative viability (NCI-H520; first compound 0.4 µM): 0.207
relative viability (NCI-H520; first compound 1.265 µM): 0.159
relative viability (NCI-H520; first compound 4 µM): 0.221
relative viability (NCI-H1651; first compound 0.04 µM): 0.384
relative viability (NCI-H1651; first compound 0.1265 µM): 0.292
relative viability (NCI-H1651; first compound 0.4 µM): 0.306
relative viability (NCI-H1651; first compound 1.265 µM): 0.246
relative viability (NCI-H1651; first compound 4 µM): 0.221
relative viability (ChaGo-K-1; first compound 0.04 µM): 0.663
relative viability (ChaGo-K-1; first compound 0.1265 µM): 0.462
relative viability (ChaGo-K-1; first compound 0.4 µM): 0.44
relative viability (ChaGo-K-1; first compound 1.265 µM): 0.485
relative viability (ChaGo-K-1; first compound 4 µM): 0.397
relative viability (NCI-H2085; first compound 0.04 µM): 0.257
relative viability (NCI-H2085; first compound 0.1265 µM): 0.275
relative viability (NCI-H2085; first compound 0.4 µM): 0.189
relative viability (NCI-H2085; first compound 1.265 µM): 0.223
relative viability (NCI-H2085; first compound 4 µM): 0.176
relative viability (NCI-H2087; first compound 0.04 µM): 0.781
relative viability (NCI-H2087; first compound 0.1265 µM): 0.774
relative viability (NCI-H2087; first compound 0.4 µM): 0.466
relative viability (NCI-H2087; first compound 1.265 µM): 0.414
relative viability (NCI-H2087; first compound 4 µM): 0.324
relative viability (NCI-H2405; first compound 0.04 µM): 0.19
relative viability (NCI-H2405; first compound 0.1265 µM): 0.195
relative viability (NCI-H2405; first compound 0.4 µM): 0.19
relative viability (NCI-H2405; first compound 1.265 µM): 0.169
relative viability (NCI-H2405; first compound 4 µM): 0.147
